This passage reports IC50 results from BindingDB's records for patent US9062048 (Janssen Pharmaceutica, 2015).

pIC50: −log10 of the molar value.

The target of this experiment is C-C chemokine receptor type 2 (Homo sapiens, UniProt P41597). Kind of experiment: Receptor Binding Assay.
Chain of C-C chemokine receptor type 2 (P41597 whole entry): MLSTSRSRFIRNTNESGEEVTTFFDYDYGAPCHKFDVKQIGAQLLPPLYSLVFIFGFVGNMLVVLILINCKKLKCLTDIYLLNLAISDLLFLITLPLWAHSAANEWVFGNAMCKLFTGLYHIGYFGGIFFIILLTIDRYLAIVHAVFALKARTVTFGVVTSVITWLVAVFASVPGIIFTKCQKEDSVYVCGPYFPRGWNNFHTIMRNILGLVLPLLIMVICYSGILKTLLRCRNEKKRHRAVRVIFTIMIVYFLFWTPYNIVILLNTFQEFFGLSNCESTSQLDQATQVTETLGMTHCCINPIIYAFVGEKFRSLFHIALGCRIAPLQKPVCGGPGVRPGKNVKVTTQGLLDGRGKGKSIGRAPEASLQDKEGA

As to `C[S+]([O-])CC(O)[C@H]1CC[C@@H](N2CC(NC(=O)CNc3ncnc4ccc(C(F)(F)F)cc34)C2)CC1` (some centres not stated) [US9062048, 21], the pIC50 (in general, the IC50 on a negative log10 scale, so that one unit is a factor of ten) is 6.76.
With `CCC(NC(=O)NC)[C@H]1CC[C@@H](N2CC(NC(=O)CNc3ncnc4ccc(C(F)(F)F)cc34)C2)CC1` (some centres not stated) [US9062048, 142] the figure was 5.91.
